# Values of other authors as cited in patent US11065330B2, “Induction of antigen-specific tolerance by peripheral phagocytosis” (PLS-Design GmbH, priority 2014, dated 2021).
# Entries after “also recorded” stand apart in the source; their conditions may differ. Where two headings read alike, the source gives them in different places. Where no end group is shown, it is not given here.
# B1: Q116D/Y119D: murine IL-4 double mutant inhibiting IL-4/IL-13-mediated effects (protein, UniProt P07750 21-140, looked up, variant Q116D Y119D)
# Interleukin-4: HIHGCDKNHLREIIGILNEVTGEGTPCTEMDVPNVLTATKNTTESELVCRASKVLRIFYLKHGKTPCLKKNSSVLMELQRLFRAFRCLDSSISCTMNESKSTSLKDFLESLKSIMDMDDS
# Legend:
# [1] = target: murine CD22 (Mus musculus, UniProt P35329)
# [2] = test system: EAE model; conditions: i.p. 5 μg/kg every 2 days
# [3] = test system: OVA-induced allergic asthma in mice; conditions: 10 ng with 100 μg OVA immunotherapy
# [4] = test system: NOD mice
# [5] = test system: Lyme arthritis and collagen-induced arthritis in mice; conditions: diet, 20 ng/mouse/day
# [6] = for solubility in 1:5 solution of ethanol:PBS: 1:5 ethanol:PBS, pH 7.2
# [7] = test system: mouse model of peritonitis; conditions: 100 ng dose
# [8] = test system: human polymorphonuclear leukocyte (PMN) transendothelial migration; conditions: read-out: EC50, reduction of PMN transendothelial migration
# [9] = test system: multiple sclerosis
# [10] = test system: IL-4 gene transcription; conditions: read-out: concentration for 50% inhibition
# [11] = test system: NF-kappa B translocation; conditions: read-out: concentration for 50% inhibition
# [12] = test system: phagocytes; conditions: for maximal migration of phagocytes, increase: at about 100 nM
# [13] = test system: isolated rat cardiomyocytes; set-up: dose or concentration left out as unconfirmed; conditions: preincubation 2-3 hours, GSM or exogenous NAC
# [14] = test system: cystic fibrosis; conditions: oral 600 mg to 1000 mg three times daily, 4 weeks
# [15] = test system: peripheral blood T cells
# [16] = test system: ovalbumin-specific IgE and IgG1 responses
# [17] = not given; remark: listed apart in the source
# [18] = test system: intestinal ischaemia/reperfusion injury model; conditions: 10 mg/kg i.v., rats
# [19] = test system: rheumatoid arthritis; conditions: three months, on methotrexate
# [20] = test system: OVA-induced allergy in mice; conditions: topical calcipotriol, then transcutaneous OVA with CpG adjuvant
# [21] = for time detectable in serum by HPLC: rats
# [22] = test system: calcium metabolism; conditions: compared to 1,25-(OH)2D3
# [23] = test system: psoriasis; conditions: more than 10 years clinical use
# [24] = test system: asthma exacerbation; conditions: six months, budesonide 800 μg/d and cholecalciferol 500 IU
# [25] = test system: baboon model of Escherichia coli sepsis; conditions: 10 mg/kg i.v. bolus then 60 μg/kg/min infusion
# [26] = test system: alternative pathway of complement activation (C3) in sera from rats; conditions: read-out: IC50 of haemolytic activity
# [27] = test system: alternative pathway of complement activation (C3) in sera from mice; conditions: read-out: IC50 of haemolytic activity
# [28] = test system: alternative pathway of complement activation (C3) in sera from guinea pigs; conditions: read-out: IC50 of haemolytic activity
# [29] = test system: NOD/Lt mice
# [30] = human, in vivo
# [31] = test system: adjuvant arthritis
# [32] = test system: type 1 diabetes
# [33] = test system: OVA-induced allergic airway inflammation; conditions: intranasal 10 μg every fourth day, 3 weeks
# [34] = test system: IL-4/IL-13-mediated effects in murine model of allergy; conditions: 50 μg pre and post OVA, then 30 μg twice a day, day 1 to 8
# [35] = 1.0 g/liter in drinking water, 8 days
# Chain of murine CD22 (P35329 22-868): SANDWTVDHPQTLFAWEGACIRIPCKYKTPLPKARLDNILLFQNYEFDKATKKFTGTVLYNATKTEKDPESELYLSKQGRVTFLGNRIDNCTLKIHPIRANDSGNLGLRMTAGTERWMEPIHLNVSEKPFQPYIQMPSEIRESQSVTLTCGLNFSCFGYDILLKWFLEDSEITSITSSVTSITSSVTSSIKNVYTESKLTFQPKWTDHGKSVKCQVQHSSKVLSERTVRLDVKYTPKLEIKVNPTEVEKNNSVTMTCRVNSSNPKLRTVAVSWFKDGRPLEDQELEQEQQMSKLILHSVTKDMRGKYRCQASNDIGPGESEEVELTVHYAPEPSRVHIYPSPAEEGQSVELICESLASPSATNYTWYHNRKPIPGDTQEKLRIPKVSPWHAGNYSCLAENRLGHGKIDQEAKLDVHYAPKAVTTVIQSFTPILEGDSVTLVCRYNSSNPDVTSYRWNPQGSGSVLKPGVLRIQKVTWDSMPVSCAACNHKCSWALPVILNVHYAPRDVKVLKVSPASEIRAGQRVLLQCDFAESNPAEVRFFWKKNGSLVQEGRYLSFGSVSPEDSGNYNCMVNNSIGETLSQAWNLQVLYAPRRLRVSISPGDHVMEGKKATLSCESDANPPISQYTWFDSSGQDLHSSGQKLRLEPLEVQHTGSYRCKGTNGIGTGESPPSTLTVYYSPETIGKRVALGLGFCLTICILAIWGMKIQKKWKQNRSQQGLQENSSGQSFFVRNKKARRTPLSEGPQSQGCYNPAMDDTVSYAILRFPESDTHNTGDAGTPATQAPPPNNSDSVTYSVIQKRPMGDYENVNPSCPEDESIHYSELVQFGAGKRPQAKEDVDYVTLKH
molecule,measurement,setting,value
9-biphenylacetyl-N-glycolylneuraminic acid-α2-6-galactose-β1-4-N-acetylglucosamine-β-ethylamine [6′-^BPANeuGc],"affinity for murine CD22, fold higher than natural ligand NeuGcα2-6Galβ1-4GlcNAc-β-ethylamine",[1],200 fold
"C=C1/C(=C\C=C2/CCC[C@]3(C)[C@@H]([C@H](C)CCCC(C)(C)O)CC[C@@H]23)C[C@@H](O)C[C@@H]1O [1,25-(OH)2D3, 1α,25-dihydroxyvitamin D3]",treated mice in which appearance of paralysis was prevented,[2],70%
same,airway hyper-responsiveness,[3],significantly inhibited airway hyper-responsiveness
same,diabetes development,[4],prevented the development of diabetes; also recorded: prevented diabetes onset
same,progression of arthritis and hypercalcemia,[5],effective in inhibiting the progression of arthritis without producing hypercalcemia
same,solubility in 1:5 solution of ethanol:PBS,[6],approx. 0.15 mg/ml
same,solubility in ethanol,[6],approx. 50 mg/ml
CC/C=C\C[C@@H](O)/C=C/C=C\C=C\C=C\[C@@H](O)[C@@H](O)C/C=C\CCC(=O)O [17(R)-Resolvin D1],maximal inhibition of leukocyte infiltration,[7],~35%
same,EC50,[8],~0.03 µM
C=C1CC[C@H](O)C/C1=C/C=C1\CCC[C@]2(C)[C@@H]([C@H](C)CCCC(C)(C)O)CC[C@@H]12 [25-OH-D3],adverse effects,"[9]; 1,000 to 40,000 IU/day",no adverse effects
same,number of new lesions by MRI,"[9]; oral 4,000-40,000 IU/day, 28 weeks",significant decrease in the number of new lesions
same,serum level to be kept to avoid toxicity,based on experiments in the rat,below 250 ng/ml
same,serum level at which toxicity occurs,"rat, in vivo",≥ 500 ng/mL
"CC(=O)Oc1ccccc1C(=O)O [ASA, acetylsalicylic acid]",IC50,[10],~1000 µM
same,IC50,[11],~3000 µM
Nc1ncnc2c1ncn2[C@@H]1O[C@H](COP(=O)(O)OP(=O)(O)OP(=O)(O)O)[C@@H](O)[C@H]1O [ATP],concentration effecting maximal migration of phagocytes,[12],about 100 nM
same,"maximal migration of phagocytes, increase",[12],threefold
"CSC[C@H](NC(=O)CC[C@H](N)C(=O)O)C(=O)NCC(=O)O [GSM, S-Methylglutathione]",protection against deleterious effects of TNF-alpha on contraction,[13],protected
"CC(=O)N[C@@H](CS)C(=O)O [NAC, N-acetyl-L-cysteine]",safety and efficacy of high doses,[14],safe and effective
same,cytotoxicity in resting T cells,"[15]; 1 mM to 20 mM, 3 day period, seven donors",nontoxic
same,T cell function and growth,[15]; 10 mM,effective enhancer of T cell function
same,protection against deleterious effects of TNF-alpha on contraction,[13],not protected
same,decrease of ovalbumin-specific IgE,[16]; 0.5 g/liter in drinking water,~30%
same,decrease of ovalbumin-specific IgG1,[16]; 0.5 g/liter in drinking water,~30%
same,decrease of ovalbumin-specific IgE response,[16]; [35],more than 70%
same,decrease of ovalbumin-specific IgG1 response,[16]; [35],more than 70%
"O=C([O-])c1ccccc1O.[Na+] [SA, sodium salicylate]",solubility in water,[6]; 20° C.,2000 µg/mL
NC(N)=NCCC[C@H](NC(=O)COCC(c1ccccc1)c1ccccc1)C(=O)O [SB290157],in vivo half-life,[17],short in vivo half-life
same,blood pressure effect,[18],rapid and transient hypertension
O=c1ccn([C@@H]2O[C@H](COP(=O)(O)OP(=O)(O)OP(=O)(O)O)[C@@H](O)[C@H]2O)c(=O)[nH]1 [UTP],concentration effecting maximal migration of phagocytes,[12],about 100 nM
same,"maximal migration of phagocytes, increase",[12],threefold
C=C1/C(=C\C=C2/CCC[C@]3(C)[C@@H]([C@H](C)CCCC(C)C)CC[C@@H]23)C[C@@H](O)C[C@@H]1O [alfacalcidiol],patients going into remission,[19],45%
same,patients with improvement of disease activity,[19],89%
C=C1/C(=C\C=C2/CCC[C@]3(C)[C@@H]([C@H](C)/C=C/[C@@H](O)C4CC4)CC[C@@H]23)C[C@@H](O)C[C@@H]1O [calcipotriol],antigen-specific CD8+ T cell priming,[20],abolished antigen-specific CD8+ T cell priming
same,time detectable in serum by HPLC,[21]; i.v. 10 μg/kg,up to 5 min
same,time detectable in serum by HPLC,[21]; i.v. 50 μg/kg,up to 10 min
same,"rate of clearance, times higher than for 1,25-(OH)2D3","[21]; rat, in vivo",approximately 140 times
same,"effect on calcium metabolism, times less than 1,25-(OH)2D3",[22],100-200 times
same,systemic toxicity on topical use,[23],without systemic toxicity
same,solubility in 1:5 solution of ethanol:PBS,[6],approx. 0.15 mg/ml
same,solubility in ethanol,[6],approx. 50 mg/ml
C=C1CC[C@H](O)C/C1=C/C=C1\CCC[C@]2(C)[C@@H]([C@H](C)CCCC(C)C)CC[C@@H]12 [cholecalciferol],children experiencing asthma exacerbation,[24],17%
CC[C@H](C)[C@H](N)C(=O)N[C@H]1CSSC[C@@H](C(=O)N[C@H](C(N)=O)[C@@H](C)O)NC(=O)[C@H](CCCN=C(N)N)NC(=O)[C@H](Cc2cnc[nH]2)NC(=O)[C@H](Cc2cnc[nH]2)NC(=O)CNC(=O)[C@H](Cc2c[nH]c3ccccc23)NC(=O)[C@H](CC(=O)O)NC(=O)[C@H](CCC(N)=O)NC(=O)[C@H](C(C)C)NC(=O)[C@H](C(C)C)NC1=O [compstatin],procoagulant response and organ protection,[25],decrease the procoagulant response
CC/C=C\C[C@H](O)/C=C/C=C\C=C\C=C\[C@@H](O)[C@@H](O)C/C=C\CCC(=O)O [resolvin D1],EC50,[8],~0.03 µM
MT-hsp65: 65 kDa heat shock protein of Mycobacterium tuberculosis,diabetes development,[29]; single i.p. 50 μg emulsified in IFA,developed within 30 days after the treatment diabetes
same,diabetes development,[29]; single i.p. injection in PBS,did not cause the development of diabetes
PMX53,half-life,[17]; in vivo,1.17 h
same,safety and tolerability,[30],safe and well tolerated
TFGLQLELT [nonapeptide 180-188],rats showing clinical symptoms of adjuvant arthritis during pretreatment,"[31]; i.p. 100 μg in FIA, 35 days before induction",none of the rats
same,rats completely protected against subsequently induced adjuvant arthritis,[31]; three times 100 μg in FIA before induction,11 out of 16
vitamin D,relative risk of type 1 diabetes over the subsequent 30 years,[32]; doses of exactly 50 μg/day,0.22
same,relative risk of type 1 diabetes over the subsequent 30 years,[32]; doses of over 50 μg/day (2000 IU/d) during infancy,0.14
B1,outcome versus SIT with OVA only,[33],did not produce significantly different results
same,humoral immune responses to OVA and allergic symptoms,[34],completely abrogated
